Values of other authors, collected in patent publication US9889198B2 (KemPharm, Inc., priority 2010, dated 2018).

Tests used:
leptin release = details: chronic oral administration, 6 weeks
human NET = human NET (Homo sapiens, UniProt P23975); details: relative to quetiapine
5-HT1A receptor = target: T1, 5-HT1A receptor (Homo sapiens, UniProt P08908); details: relative to quetiapine
T1 sequence (P08908 1-422): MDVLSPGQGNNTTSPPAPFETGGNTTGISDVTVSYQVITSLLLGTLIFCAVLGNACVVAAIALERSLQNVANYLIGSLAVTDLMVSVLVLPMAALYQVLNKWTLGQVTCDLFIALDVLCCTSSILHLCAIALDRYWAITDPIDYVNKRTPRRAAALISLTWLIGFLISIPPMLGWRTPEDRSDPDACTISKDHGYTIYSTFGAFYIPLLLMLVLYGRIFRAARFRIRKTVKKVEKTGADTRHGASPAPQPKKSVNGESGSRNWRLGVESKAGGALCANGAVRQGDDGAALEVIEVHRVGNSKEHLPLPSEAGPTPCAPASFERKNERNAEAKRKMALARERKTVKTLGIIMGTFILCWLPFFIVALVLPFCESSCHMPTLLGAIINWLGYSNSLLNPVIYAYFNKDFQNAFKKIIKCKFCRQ

Chain of human NET (P23975 whole entry): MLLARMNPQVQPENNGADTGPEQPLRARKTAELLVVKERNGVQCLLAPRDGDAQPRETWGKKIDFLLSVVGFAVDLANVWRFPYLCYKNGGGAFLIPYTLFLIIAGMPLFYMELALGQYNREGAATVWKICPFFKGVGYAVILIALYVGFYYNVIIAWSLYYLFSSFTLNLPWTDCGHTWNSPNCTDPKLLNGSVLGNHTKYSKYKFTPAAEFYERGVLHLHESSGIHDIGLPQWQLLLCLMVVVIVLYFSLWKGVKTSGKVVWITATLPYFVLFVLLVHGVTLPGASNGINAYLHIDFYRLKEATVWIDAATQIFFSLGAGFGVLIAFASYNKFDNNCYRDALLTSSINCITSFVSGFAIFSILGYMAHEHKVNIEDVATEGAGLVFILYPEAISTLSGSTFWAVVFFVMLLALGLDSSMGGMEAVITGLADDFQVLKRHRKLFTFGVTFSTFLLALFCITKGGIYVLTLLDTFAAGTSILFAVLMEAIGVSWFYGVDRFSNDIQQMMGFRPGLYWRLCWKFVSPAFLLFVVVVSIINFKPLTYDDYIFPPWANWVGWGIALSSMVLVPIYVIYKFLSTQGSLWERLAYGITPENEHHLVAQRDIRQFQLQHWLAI

OCCOCCN1CCN(C2=Nc3ccccc3Sc3ccccc32)CC1 [quetiapine, 2-(2-(4-(dibenzo[b,f][1,4]thiazepin-11-yl)piperazin-1-yl)ethoxy)ethanol]
increase in leptin release (leptin release): about 37%

c1ccc2c(c1)N=C(N1CCNCC1)c1ccccc1S2 [N-desalkyl-quetiapine]
higher avidity for inhibiting human NET than quetiapine (human NET): about 100 fold
more potent than quetiapine at the 5-HT1A receptor (5-HT1A receptor): 10 fold

CCCC(CCC)C(=O)O [Valproic acid, 2-propylpentanoic acid]
response rate in acute mania (acute mania patients): around 50%
response rate in bipolar depression (bipolar depression): ~30%
